Source: patent US10632195B2, “Pharmaceutical device for electric-field assisted administration of Tapentadol and method of administering Tapentadol with same” (Gruenenthal GmbH, priority 2012, dated 2020)
Values joined by “and” are separate entries in the source; they are usually repeats but may differ in a detail not shown here. Identical values can stand only once. Counter-ions that a name gives are not always drawn.

Legend:
[1] = passive transdermal delivery of Tapentadol hydrochloride, 24 hours, no current (comparative example 1b, passive control); assay type: in vitro ADME, pig; conditions: for cumulative, passive delivery across the skin, Mean / cumulative, passive delivery across the skin, as tapentadol base, Mean / drug flux across the skin, Mean / drug flux across the skin, as tapentadol base, Mean: n=2; for cumulative, passive delivery across the skin, Mean / cumulative, passive delivery across the skin, as tapentadol base, Mean / drug flux across the skin, Mean / drug flux across the skin, as tapentadol base, Mean / drug flux across the skin / cumulative, passive delivery across the skin: patch area 0.64 cm^2; for drug flux across the skin, Mean / drug flux across the skin, as tapentadol base, Mean / drug flux across the skin: passive, no current; for drug flux across the skin / cumulative, passive delivery across the skin: single cells 1-2
Method: For comparison, the rate of transdermal delivery of Tapentadol hydrochloride for a period of 24 hours has been determined without any means of electric-field-assisted administration (passive control).
The flux of Tapentadol hydrochloride from passive diffusion alone was measured (n=2). The experimental set-up was exactly as previously described, except that no electrodes were placed in the diffusion cell and no current was applied. The temperature was held at 37° C. The receptor solution was sampled and assayed at 0.5, 1, 1.5, 2, 3, 4, 5, 6, 7, 8 and 24 hours. 1 ml of receptor solution was removed and replaced with fresh PBS at each sampling point.

[2] = pH of the donor solution (Tapentadol hydrochloride 100 mM in water) before and after iontophoresis; assay type: physicochemical
Method: The anode was placed in the donor chamber; the donor solution was 3 ml of Tapentadol hydrochloride (100 mM, i.e. 25.78 mg/ml of Tapentadol hydrochloride, 22.13 mg/ml of base) in water. The cathode was placed in the receptor chamber, which contained 3 ml of phosphate-buffered saline, pH 7.4. Both chambers were stirred by magnets.
Voltages were as expected for 6 cells in series (range was 6 to 28 volts). The pH of the donor solution was measured after termination of 24 hours of iontophoresis, and ranged from 6.47 to 6.99. The pH of drug in the donor prior to commencing the experiment was 5.07 (5.34 for the 8 hour iontophoresis).

CC[C@@H](c1cccc(O)c1)[C@@H](C)CN(C)C [Tapentadol hydrochloride]
cumulative, passive delivery across the skin, Mean ([1]; 0.5 h): 0 µg | cumulative, passive delivery across the skin, as tapentadol base, Mean ([1]; 0.5 h): 0 µg | drug flux across the skin, Mean ([1]; 0.5 h): 0 µg/h | drug flux across the skin, as tapentadol base, Mean ([1]; 0.5 h): 0 µg/h | drug flux across the skin ([1]; 0.5 h): 0 µg/h | cumulative, passive delivery across the skin ([1]; 0.5 h): 0 µg | cumulative, passive delivery across the skin, Mean ([1]; 1 h): 0 µg | cumulative, passive delivery across the skin, as tapentadol base, Mean ([1]; 1 h): 0 µg | drug flux across the skin, Mean ([1]; 1 h): 0 µg/h | drug flux across the skin, as tapentadol base, Mean ([1]; 1 h): 0 µg/h | drug flux across the skin ([1]; 1 h): 0 µg/h | cumulative, passive delivery across the skin ([1]; 1 h): 0 µg | cumulative, passive delivery across the skin, Mean ([1]; 1.5 h): 0 µg | cumulative, passive delivery across the skin, as tapentadol base, Mean ([1]; 1.5 h): 0 µg | drug flux across the skin, Mean ([1]; 1.5 h): 0 µg/h | drug flux across the skin, as tapentadol base, Mean ([1]; 1.5 h): 0 µg/h | drug flux across the skin ([1]; 1.5 h): 0 µg/h | cumulative, passive delivery across the skin ([1]; 1.5 h): 0 µg | cumulative, passive delivery across the skin, Mean ([1]; 2 h): 0 µg | cumulative, passive delivery across the skin, as tapentadol base, Mean ([1]; 2 h): 0 µg | drug flux across the skin, Mean ([1]; 2 h): 0 µg/h | drug flux across the skin, as tapentadol base, Mean ([1]; 2 h): 0 µg/h | drug flux across the skin ([1]; 2 h): 0 µg/h | cumulative, passive delivery across the skin ([1]; 2 h): 0 µg | cumulative, passive delivery across the skin, Mean ([1]; 3 h): 2 µg | cumulative, passive delivery across the skin, as tapentadol base, Mean ([1]; 3 h): 1 µg | drug flux across the skin, Mean ([1]; 3 h): 1 µg/h | drug flux across the skin, as tapentadol base, Mean ([1]; 3 h): 1 µg/h | drug flux across the skin ([1]; 3 h): 1 µg/h | cumulative, passive delivery across the skin ([1]; 3 h, listed as Tapentadol HCl, hydrochloride): 2 µg and 1 µg | cumulative, passive delivery across the skin, Mean ([1]; 4 h): 4 µg | cumulative, passive delivery across the skin, as tapentadol base, Mean ([1]; 4 h): 3 µg | drug flux across the skin, Mean ([1]; 4 h): 2 µg/h | drug flux across the skin, as tapentadol base, Mean ([1]; 4 h): 2 µg/h | drug flux across the skin ([1]; 4 h): 2 µg/h | cumulative, passive delivery across the skin ([1]; 4 h, listed as Tapentadol HCl, hydrochloride): 4 µg and 3 µg | cumulative, passive delivery across the skin, Mean ([1]; 5 h): 6 µg | cumulative, passive delivery across the skin, as tapentadol base, Mean ([1]; 5 h): 5 µg | drug flux across the skin, Mean ([1]; 5 h): 3 µg/h | drug flux across the skin, as tapentadol base, Mean ([1]; 5 h): 2 µg/h | drug flux across the skin ([1]; 5 h, hydrochloride): 3 µg/h and 2 µg/h | cumulative, passive delivery across the skin ([1]; 5 h, listed as Tapentadol HCl, hydrochloride): 7 µg and 5 µg | cumulative, passive delivery across the skin, Mean ([1]; 6 h): 9 µg | cumulative, passive delivery across the skin, as tapentadol base, Mean ([1]; 6 h): 8 µg | drug flux across the skin, Mean ([1]; 6 h): 3 µg/h | drug flux across the skin, as tapentadol base, Mean ([1]; 6 h): 3 µg/h | drug flux across the skin ([1]; 6 h, hydrochloride): 4 µg/h and 3 µg/h | cumulative, passive delivery across the skin ([1]; 6 h, listed as Tapentadol HCl, hydrochloride): 11 µg and 8 µg | cumulative, passive delivery across the skin, Mean ([1]; 7 h): 13 µg | cumulative, passive delivery across the skin, as tapentadol base, Mean ([1]; 7 h): 11 µg | drug flux across the skin, Mean ([1]; 7 h): 3 µg/h | drug flux across the skin, as tapentadol base, Mean ([1]; 7 h): 3 µg/h | drug flux across the skin ([1]; 7 h, hydrochloride): 4 µg/h and 3 µg/h | cumulative, passive delivery across the skin ([1]; 7 h, listed as Tapentadol HCl, hydrochloride): 14 µg and 11 µg | cumulative, passive delivery across the skin, Mean ([1]; 8 h): 18 µg | cumulative, passive delivery across the skin, as tapentadol base, Mean ([1]; 8 h): 15 µg | drug flux across the skin, Mean ([1]; 8 h): 5 µg/h | drug flux across the skin, as tapentadol base, Mean ([1]; 8 h): 4 µg/h | drug flux across the skin ([1]; 8 h, hydrochloride): 5 µg/h and 4 µg/h | cumulative, passive delivery across the skin ([1]; 8 h, listed as Tapentadol HCl, hydrochloride): 20 µg and 15 µg | cumulative, passive delivery across the skin, Mean ([1]; 24 h): 186 µg | cumulative, passive delivery across the skin, as tapentadol base, Mean ([1]; 24 h): 159 µg | drug flux across the skin, Mean ([1]; 24 h): 11 µg/h | drug flux across the skin, as tapentadol base, Mean ([1]; 24 h): 9 µg/h | drug flux across the skin ([1]; 24 h, hydrochloride): 11 µg/h and 10 µg/h | cumulative, passive delivery across the skin ([1]; 24 h, listed as Tapentadol HCl, hydrochloride): 192 µg and 179 µg | rate of passive diffusion ([1]; by 24 hours): 16 μg/h/cm2 | time within which steady state flux was not reached ([1]; comparative example 1b, passive diffusion): > 8 h | pH of drug in the donor ([2]; prior to commencing the experiment (8 hour iontophoresis)): 5.34 | pH of drug in the donor ([2]; prior to commencing the experiment (24 hour iontophoresis)): 5.07
